Values of other authors, collected in patent US10300065B2, “Method of treating or prevention of atherothrombotic events in patients with history of myocardial infarction” (ASTRAZENECA AB, priority 2015, dated 2019).

Assays:
[1] = human, in vivo, po; cited from earlier work
[2] = tested on: patients with acute coronary syndrome; details: PLATO, cited from earlier work

Compound	AUC and cmax of crushed tablets relative to whole tablets (bioequivalence) [1]	serum uric acid level increase from baseline ([2]; clopidogrel)	reports of gout ([2]; each treatment group)
CCCSc1nc(N[C@@H]2C[C@H]2c2ccc(F)c(F)c2)c2nnn([C@@H]3C[C@H](O)[C@@H](O)[C@H]3O)c2n1 [AR-C124910XX]	80-125%		
COC(=O)[C@H](c1ccccc1Cl)N1CCc2sccc2C1 [clopidogrel]		approximately 0.2 mg/dL	0.6%
